Key:
rat TRPV1 = molecular target: T1, rat TRPV1 (Rattus norvegicus, UniProt O35433); assay: Block of capsaicin-induced Ca2+ influx, rat assay (rTRPV1/HEK293, FLIPR); assay type: cell-based; settings: HEK293 cells transfected with rat TRPV1; capsaicin challenge; mean; > value = solubility limit in assay medium; read-out: Rat IC50
T1 construct: expressed in transfected cells; host or cells: HEK293
Procedure: (§1) HEK293 cells were transfected with human TRPV1 cloned in pcDNA3.1zeo(+) using the Effectene non-liposomal lipid based transfection kit (Qiagen) (hTRPV1/HEK293). hTRPV1/HEK293 cells were routinely grown as monolayers under selection in zeocin (200 μg/mL; Invitrogen) in Dulbecco's Modified Eagle Medium (DMEM, Gibco BRL) supplemented with 10% fetal bovine serum, and penicillin/streptomycin (50 units/mL) in 5% CO2 at 37° C. Cells were passaged frequently, every 3-5 days, to avoid overgrowth, depletion of essential medium components, or acidic medium exposure. Cells were passaged using a brief wash in 0.05% trypsin with 1 mM EDTA, followed by dissociation in divalent-free phosphate-buffered saline (Hyclone #SH30028.02). […] The assay buffer was composed of 130 mM NaCl, 2 mM KCl, 2 mM MgCl2, 10 mM HEPES, 5 mM glucose, and either 2 mM or 20 μM CaCl2. On the day of the experiment, the culture medium was replaced with 2 mM calcium assay buffer using an automated plate washer (ELx405; Biotek, VT). […] After loading the cells, the dye solution was replaced with 50 μL/well of 20 μM calcium assay buffer using the ELx405 plate washer. Test compounds (50 μL/well) were added to the plate and incubated for 30 min. Intracellular Ca^2+ levels were subsequently assayed using a Fluorometric Imaging Plate Reader (FLIPR™ instrument, Molecular Devices, CA) to simultaneously monitor Fluo-3 fluorescence in all wells (λexcitation=488 nm, λemission=540 nm) during challenge with agonist (capsaicin). The IC50 values were determined. […] The contents of the wells were mixed 3 times (40 μL mix volume) immediately after the additions were made. Concentration-dependence of block was determined by exposing each well of cells in duplicate rows of a 96-well plate to a serial dilution of test compound. The concentration series usually started at 10 μM with a three-fold serial decrement in concentration. The magnitude of the capsaicin response was determined by measuring the change in fluo3 fluorescence before and 100 seconds after the addition of the agonist. Data were analyzed using a non-linear regression program (Origin; OriginLab, MA).
This assay was performed similarly to the human assay described above, but using HEK293 cells transfected with rat TRPV1 (rTRPV1/HEK293).
(§2) IC50 values shown are the average (mean) of the results obtained. […] Compounds were tested as in the free base, trifluoroacetic acid salt, or hydrochloride salt form.

human TRPV1 = molecular target: T2, human TRPV1 (Homo sapiens, UniProt Q8NER1); assay: Block of capsaicin-induced Ca2+ influx, human assay (hTRPV1/HEK293, FLIPR); assay type: cell-based; settings: HEK293 cells transfected with human TRPV1; 150 nM capsaicin challenge; mean; > value = solubility limit in assay medium
T2 construct: expressed in transfected cells; host or cells: HEK293
T2 sequence (Q8NER1 whole entry): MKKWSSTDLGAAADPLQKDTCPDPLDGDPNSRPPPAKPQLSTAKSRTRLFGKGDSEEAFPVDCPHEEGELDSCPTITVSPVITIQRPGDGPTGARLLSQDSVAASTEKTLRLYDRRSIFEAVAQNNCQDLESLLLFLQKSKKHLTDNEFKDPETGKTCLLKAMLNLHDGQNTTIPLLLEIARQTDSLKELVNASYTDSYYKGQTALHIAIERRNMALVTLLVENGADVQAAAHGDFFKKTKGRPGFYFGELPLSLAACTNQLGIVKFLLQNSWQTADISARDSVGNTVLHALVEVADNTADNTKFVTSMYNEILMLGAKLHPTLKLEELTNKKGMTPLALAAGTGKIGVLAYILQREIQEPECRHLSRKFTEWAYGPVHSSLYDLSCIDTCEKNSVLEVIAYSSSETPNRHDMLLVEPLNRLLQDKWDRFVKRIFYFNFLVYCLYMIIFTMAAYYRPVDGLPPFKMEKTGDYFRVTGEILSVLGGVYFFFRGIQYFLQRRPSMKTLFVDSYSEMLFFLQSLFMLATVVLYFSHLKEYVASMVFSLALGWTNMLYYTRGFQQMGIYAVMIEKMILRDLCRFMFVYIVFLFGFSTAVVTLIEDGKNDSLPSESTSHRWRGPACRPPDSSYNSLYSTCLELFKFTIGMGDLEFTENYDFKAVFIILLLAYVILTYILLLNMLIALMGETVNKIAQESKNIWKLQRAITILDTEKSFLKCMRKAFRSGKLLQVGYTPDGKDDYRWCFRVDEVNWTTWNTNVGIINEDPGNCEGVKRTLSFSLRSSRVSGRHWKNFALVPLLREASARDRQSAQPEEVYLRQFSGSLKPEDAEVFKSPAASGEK
Procedure: as §1, §2

T1 sequence (O35433 whole entry): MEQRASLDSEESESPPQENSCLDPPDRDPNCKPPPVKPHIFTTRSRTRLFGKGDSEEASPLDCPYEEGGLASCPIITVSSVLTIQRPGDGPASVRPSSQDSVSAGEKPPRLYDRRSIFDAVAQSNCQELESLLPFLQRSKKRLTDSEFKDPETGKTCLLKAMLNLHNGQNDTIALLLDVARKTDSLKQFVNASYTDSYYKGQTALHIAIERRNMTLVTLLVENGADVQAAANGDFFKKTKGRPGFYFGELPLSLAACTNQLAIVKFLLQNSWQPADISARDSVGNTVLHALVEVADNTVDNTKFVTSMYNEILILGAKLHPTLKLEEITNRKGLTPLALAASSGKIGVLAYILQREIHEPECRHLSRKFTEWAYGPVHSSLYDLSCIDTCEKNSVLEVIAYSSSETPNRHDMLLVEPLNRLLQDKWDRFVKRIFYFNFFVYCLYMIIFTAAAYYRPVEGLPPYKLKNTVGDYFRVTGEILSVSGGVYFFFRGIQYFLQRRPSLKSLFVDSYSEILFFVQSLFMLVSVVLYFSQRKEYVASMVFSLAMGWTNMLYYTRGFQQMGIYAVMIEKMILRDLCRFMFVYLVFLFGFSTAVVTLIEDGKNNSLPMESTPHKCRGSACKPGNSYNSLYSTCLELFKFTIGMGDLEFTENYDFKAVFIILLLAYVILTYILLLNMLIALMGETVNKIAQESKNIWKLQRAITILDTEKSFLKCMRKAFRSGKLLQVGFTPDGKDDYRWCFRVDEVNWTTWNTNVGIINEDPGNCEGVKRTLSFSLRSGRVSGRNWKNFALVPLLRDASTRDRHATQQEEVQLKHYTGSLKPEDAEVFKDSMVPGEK

In the case of CN1CCN(S(=O)(=O)c2ccc(Nc3ncnc4sc(Cc5c(Cl)cccc5Cl)nc34)cc2)CC1 [Example 16, [2-(2,6-Dichloro-benzyl)-thiazolo[5,4-d]pyrimidin-7-yl]-[4-(4-methyl-piperazine-1-sulfonyl)-phenyl]-amine], the IC50 (rat TRPV1) is reported as 1090 nM and the IC50 (human TRPV1) is reported as 416 nM.

Molecule Cc1ccccc1Cc1nc2c(Nc3ccc(C(F)(F)F)cc3)ncnc2s1 [Example 17, 2-(2-Methylbenzyl)-N-[4-(trifluoromethyl)phenyl][1,3]thiazolo[5,4-d]pyrimidin-7-amine] has an IC50 (rat TRPV1) of 146 nM and an IC50 (human TRPV1) of 147 nM.

Molecule Cc1ccccc1Cc1nc2c(Nc3ccc(C(F)(F)F)nc3)ncnc2s1 [Example 18, 2-(2-Methylbenzyl)-N-[6-(trifluoromethyl)pyridin-3-yl][1,3]thiazolo[5,4-d]pyrimidin-7-amine] has an IC50 (rat TRPV1) of 154 nM and an IC50 (human TRPV1) of 85 nM.

Work on Cc1ccccc1Cc1nc2c(Nc3ccc(S(C)(=O)=O)cc3)ncnc2s1 [Example 19, 2-(2-Methylbenzyl)-N-[4-(methylsulfonyl)phenyl][1,3]thiazolo[5,4-d]pyrimidin-7-amine] yielded an IC50 (rat TRPV1) of 247 nM and an IC50 (human TRPV1) of 471 nM.

FC(F)(F)c1ccc(Nc2ncnc3sc(Cc4ccccc4Cl)nc23)cc1 [Example 20, 2-(2-Chlorobenzyl)-N-[4-(trifluoromethyl)phenyl][1,3]thiazolo[5,4-d]pyrimidin-7-amine] gave an IC50 (rat TRPV1) of 32 nM and an IC50 (human TRPV1) of 40 nM.

FC(F)(F)c1ccc(Nc2ncnc3sc(Cc4ccccc4Cl)nc23)cn1 [Example 21, 2-(2-Chlorobenzyl)-N-[6-(trifluoromethyl)pyridin-3-yl][1,3]thiazolo[5,4-d]pyrimidin-7-amine] was tested, and the IC50 (rat TRPV1) was 54 nM and the IC50 (human TRPV1) was 79 nM.

Work on CS(=O)(=O)c1ccc(Nc2ncnc3sc(Cc4ccccc4Cl)nc23)cc1 [Example 22, 2-(2-Chlorobenzyl)-N-[4-(methylsulfonyl)phenyl][1,3]thiazolo[5,4-d]pyrimidin-7-amine] yielded an IC50 (rat TRPV1) of 33 nM and an IC50 (human TRPV1) of 280 nM.

FC(F)(F)c1ccccc1Nc1ncnc2sc(Cc3c(Cl)cccc3Cl)nc12 [Example 23, 2-(2,6-Dichlorobenzyl)-N-[2-(trifluoromethyl)phenyl][1,3]thiazolo[5,4-d]pyrimidin-7-amine] showed an IC50 (rat TRPV1) of 1790 nM and an IC50 (human TRPV1) of over 6670 nM.

FC(F)(F)c1cccc(Nc2ncnc3sc(Cc4c(Cl)cccc4Cl)nc23)c1 [Example 24, 2-(2,6-Dichlorobenzyl)-N-[3-(trifluoromethyl)phenyl][1,3]thiazolo[5,4-d]pyrimidin-7-amine] showed an IC50 (rat TRPV1) of 196 nM and an IC50 (human TRPV1) of 840 nM.

CC(C)(C)c1ccc(Nc2ncnc3sc(Cc4c(Cl)cccc4Cl)nc23)cc1 [Example 25, N-(4-tert-Butylphenyl)-2-(2,6-dichlorobenzyl)[1,3]thiazolo[5,4-d]pyrimidin-7-amine] was tested, and the IC50 (rat TRPV1) was 11 nM and the IC50 (human TRPV1) was 54 nM.

FC(F)(F)c1ccc(Nc2ncnc3sc(Cc4ccccc4)nc23)cc1 [Example 32, 2-Benzyl-N-[4-(trifluoromethyl)phenyl][1,3]thiazolo[5,4-d]pyrimidin-7-amine] showed an IC50 (rat TRPV1) of 55 nM and an IC50 (human TRPV1) of 2920 nM.

FC(F)(F)c1ccc(Nc2ncnc3sc(Cc4ccccc4)nc23)cn1 [Example 33, 2-Benzyl-N-[6-(trifluoromethyl)pyridin-3-yl][1,3]thiazolo[5,4-d]pyrimidin-7-amine] showed an IC50 (rat TRPV1) of 111 nM and an IC50 (human TRPV1) of 813 nM.

In the case of CS(=O)(=O)c1ccc(Nc2ncnc3sc(Cc4ccccc4)nc23)cc1 [Example 34, 2-Benzyl-N-[4-(methylsulfonyl)phenyl][1,3]thiazolo[5,4-d]pyrimidin-7-amine], the IC50 (rat TRPV1) is reported as 1460 nM and the IC50 (human TRPV1) is reported as 3310 nM.

FC(F)(F)c1ccc(Nc2ncnc3sc(Cc4ccc(Cl)cc4)nc23)cc1 [Example 35, 2-(4-Chlorobenzyl)-N-[4-(trifluoromethyl)phenyl][1,3]thiazolo[5,4-d]pyrimidin-7-amine] gave an IC50 (rat TRPV1) of 42 nM and an IC50 (human TRPV1) of 988 nM.

Work on FC(F)(F)c1ccc(Nc2ncnc3sc(Cc4ccc(Cl)cc4)nc23)cn1 [Example 36, 2-(4-Chlorobenzyl)-N-[6-(trifluoromethyl)pyridin-3-yl][1,3]thiazolo[5,4-d]pyrimidin-7-amine] yielded an IC50 (rat TRPV1) of 80 nM and an IC50 (human TRPV1) of 2300 nM.

COc1ccc(Nc2ncnc3sc(Cc4c(Cl)cccc4Cl)nc23)cc1 [Example 37, 2-(2,6-Dichlorobenzyl)-N-(4-methoxyphenyl)[1,3]thiazolo[5,4-d]pyrimidin-7-amine] was tested, and the IC50 (rat TRPV1) was 241 nM and the IC50 (human TRPV1) was 328 nM.

With Fc1ccc(Nc2ncnc3sc(Cc4c(Cl)cccc4Cl)nc23)cc1 [Example 39, 2-(2,6-Dichlorobenzyl)-N-(4-fluorophenyl)[1,3]thiazolo[5,4-d]pyrimidin-7-amine] the IC50 (rat TRPV1) was 189 nM and the IC50 (human TRPV1) was 225 nM.

Clc1ccc(Nc2ncnc3sc(Cc4c(Cl)cccc4Cl)nc23)cc1 [Example 40, N-(4-Chlorophenyl)-2-(2,6-dichlorobenzyl)[1,3]thiazolo[5,4-d]pyrimidin-7-amine] was tested, and the IC50 (rat TRPV1) was 51 nM and the IC50 (human TRPV1) was 49 nM.

Clc1cccc(Cl)c1Cc1nc2c(Nc3ccc(Br)cc3)ncnc2s1 [Example 41, N-(4-Bromophenyl)-2-(2,6-dichlorobenzyl)[1,3]thiazolo[5,4-d]pyrimidin-7-amine] was tested, and the IC50 (rat TRPV1) was 29 nM and the IC50 (human TRPV1) was 32 nM.

In the case of CC(C)(C#N)c1ccc(Nc2ncnc3sc(Cc4c(Cl)cccc4Cl)nc23)cc1 [Example 42, 2-(4-{[2-(2,6-Dichlorobenzyl)[1,3]thiazolo[5,4-d]pyrimidin-7-yl]amino}phenyl)-2-methylpropanenitrile], the IC50 (rat TRPV1) is reported as 56 nM and the IC50 (human TRPV1) is reported as 99 nM.

Work on Clc1cccc(Cl)c1Cc1nc2c(Nc3ccccc3)ncnc2s1 [Example 43, 2-(2,6-Dichlorobenzyl)-N-phenyl[1,3]thiazolo[5,4-d]pyrimidin-7-amine] yielded an IC50 (rat TRPV1) of 167 nM and an IC50 (human TRPV1) of 269 nM.

In the case of FC(F)(F)Oc1ccc(Nc2ncnc3sc(Cc4c(Cl)cccc4Cl)nc23)cc1 [Example 44, 2-(2,6-Dichlorobenzyl)-N-[4-(trifluoromethoxy)phenyl][1,3]thiazolo[5,4-d]pyrimidin-7-amine], the IC50 (rat TRPV1) is reported as 44 nM and the IC50 (human TRPV1) is reported as 193 nM.

Molecule CS(=O)(=O)c1ccc(Nc2ncnc3sc(Cc4c(Cl)cccc4Cl)nc23)cc1F [Example 45, 2-(2,6-Dichlorobenzyl)-N-[3-fluoro-4-(methylsulfonyl)phenyl][1,3]thiazolo[5,4-d]pyrimidin-7-amine] has an IC50 (rat TRPV1) of 183 nM and an IC50 (human TRPV1) of 274 nM.

With Cc1ccc(Nc2ncnc3sc(Cc4c(Cl)cccc4Cl)nc23)cc1 [Example 46, 2-(2,6-Dichlorobenzyl)-N-(4-methylphenyl)[1,3]thiazolo[5,4-d]pyrimidin-7-amine] the IC50 (rat TRPV1) was 52 nM and the IC50 (human TRPV1) was over 6670 nM.

CC(C)(C(N)=O)c1ccc(Nc2ncnc3sc(Cc4c(Cl)cccc4Cl)nc23)cc1 [Example 47, 2-(4-{[2-(2,6-Dichlorobenzyl)[1,3]thiazolo[5,4-d]pyrimidin-7-yl]amino}phenyl)-2-methylpropanamide] showed an IC50 (rat TRPV1) of 4490 nM and an IC50 (human TRPV1) of 8900 nM.

With FC(F)(F)c1ccccc1Cc1nc2c(Nc3ccccc3)ncnc2s1 [Example 48, N-Phenyl-2-[2-(trifluoromethyl)benzyl][1,3]thiazolo[5,4-d]pyrimidin-7-amine] the IC50 (rat TRPV1) was 410 nM and the IC50 (human TRPV1) was 852 nM.

In the case of FC(F)(F)c1ccccc1Cc1nc2c(Nc3ccc(Br)cc3)ncnc2s1 [Example 49, N-(4-Bromophenyl)-2-[2-(trifluoromethyl)benzyl][1,3]thiazolo[5,4-d]pyrimidin-7-amine], the IC50 (rat TRPV1) is reported as 16 nM and the IC50 (human TRPV1) is reported as 59 nM.

CC(C)(C)c1ccc(Nc2ncnc3sc(Cc4ccccc4C(F)(F)F)nc23)cc1 [Example 50, N-(4-tert-Butylphenyl)-2-[2-(trifluoromethyl)benzyl][1,3]thiazolo[5,4-d]pyrimidin-7-amine] gave an IC50 (rat TRPV1) of 6 nM and an IC50 (human TRPV1) of 34 nM.

Work on CS(=O)(=O)c1ccc(Nc2ncnc3sc(Cc4ccccc4C(F)(F)F)nc23)cc1 [Example 51, N-[4-(Methylsulfonyl)phenyl]-2-[2-(trifluoromethyl)benzyl][1,3]thiazolo[5,4-d]pyrimidin-7-amine] yielded an IC50 (rat TRPV1) of 39 nM and an IC50 (human TRPV1) of 202 nM.

Work on O=S(=O)(c1ccc(Nc2ncnc3sc(Cc4ccccc4C(F)(F)F)nc23)cc1)N1CCOCC1 [Example 52, N-[4-(Morpholin-4-ylsulfonyl)phenyl]-2-[2-(trifluoromethyl)benzyl][1,3]thiazolo[5,4-d]pyrimidin-7-amine] yielded an IC50 (rat TRPV1) of 44 nM and an IC50 (human TRPV1) of 59 nM.

— patent US9440978B2, “Imidazolo-, oxazolo-, and thiazolopyrimidine modulators of TRPV1” (Janssen Pharmaceutica NV, priority 2007, dated 2016)
